The values below come from patent US20250002450A1, “CATIONIC STEROID COMPOUNDS, METHOD OF OBTAINING THEREOF, FORMULATIONS COMPRISING THEREOF AND THEIR USES” (UNIVERSIDADE DO PORTO, priority 2021, published 2025).

Holding throughout (experiment): Antifungal MIC/MLC (broth microdilution)
Type in all cases: cell-based
A general note: Broth dilution looks for growth in wells or tubes with falling amounts of substance.

Assay [1] deals with Candida albicans ATCC 10231. An excerpt: (§1) Twenty-three fungal strains were used in this study, including reference strains and clinical isolates of yeasts and filamentous fungi. Yeast strains included reference strains (ATCC—American Type Culture Collection and CECT—Colección Española de Cultivos Tipo) and clinical isolates: C. albicans ATCC 10231, Candida krusei ATCC 6258, C. albicans H37, C. albicans FF172, C. albicans FF176, C. albicans DSY294, C. albicans DSY296, C. glabrata DSY562, C. glabrata DSY565 and Cryptococcus neoformans CECT 1078. Filamentous fungi included Aspergillus fumigatus ATCC 240305, A. fumigatus C111, A. niger ATCC 16404, A. flavus F44, Fusarium solani FF125, F. oxysporum FF115, and dermatophytes Trichophyton rubrum FF5, T. mentagrophytes FF7, Microscoporum canis FF1 and Nannizzia gypsea FF3 (formerly Microsporum gypseum) and a species of genera Mucor, Lichetheimia and Scedosporium. Saprolegnia parasitica CBS 223.65, a reference strain of an oomycete fish pathogen, was also included. All microorganisms were kept in Sabouraud Dextrose Broth (SDB: BioMérieux, Marcy L'Etoile, France) plus glycerol (20%) at −80° C. The strains were kept in Sabouraud Dextrose Agar (SDA: BioMérieux, Marcy L'Etoile, France) slants and were sub-cultured in SDA before each test. S. parasitica was kept in Corn Meal Agar plates (CMA: BBL™ Corn Meal Agar, BD, Le Pont-de-Claix, France) and was sub-cultured in CMA before each experiment. C. albicans H37, was kindly provided by Cidilia Pina Vaz (CHSJ, Porto, Portugal) and C. albicans DSY294, C. albicans DSY296, C. glabrata DSY562, C. glabrata DSY565 were kindly provided by D. Sanglard (University of Lausanne, Switzerland). A stock solution of compound 1 (10 mg/mL), was prepared in dimethyl sulfoxide (DMSO 99%: Alfa Aesar, Kandel, Germany), kept at −20 degrees C., and freshly diluted in the appropriate culture media before each assay. In all experiments, in-test concentrations of DMSO were kept below 2%.
(§2) Antifungal activity was evaluated by determining the MIC of compound 1 by the broth microdilution method, according to CLSI guidelines (reference documents M27-A3 for yeasts and M38-A2 for filamentous fungi). Briefly, cell or spore suspensions were prepared in RPMI-1640 broth medium (Biochrom, Berlin, Germany) buffered with 3-(N-morpholino)propane sulfonic acid (MOPS) (Sigma-Aldrich, St. Louis, MO, USA) (henceforth referred to as RPMI) from fresh cultures of the different strains of fungi. For yeasts, the inoculum was adjusted to 0.5-2.5×10^3 CFU/mL. For filamentous fungi, the inoculum was adjusted to 1-3×10^3 CFU/mL for dermatophytes, and 0.4-5×10^4 CFU/mL for all other strains. […] Sterility and growth controls were included in each assay. The 96-well flat-bottomed untreated polystyrene microtiter plates which were incubated for 48 h at 35° C., with the exception of Lichetheimia spp. which was incubated at 25° C. for 48 h, and the dermatophyte strains, which incubated for 5-7 days at 25° C. […] The minimal lethal concentration (MLC) was determined by spreading 20 μL of culture collected from wells showing no visible growth on SDA plates. The MLC was determined as the lowest concentration showing complete growth inhibition after 48 h at 35 degrees C., 48 h at 25 degrees C.

Assay [2] has as its system Microsporum canis FF1.
From the text: as §1, §2

The test system of assay [3] is Nannizzia gypsea FF3.
From the text: as §1, §2

The subject of assay [4] is Trichophyton rubrum FF5.
From the text: as §1, §2

Each structure is given as a SMILES string. In brackets after ≈: the same amount, converted by molar mass. Like-named read-outs stand apart in the source and are kept apart here.

As for `OC(Cn1cncn1)(Cn1cncn1)c1ccc(F)cc1F` [Fluconazole, reference compound], the MIC in assay [1] (ATCC10231, read-out: MIC) amounted to 2 µg/mL (≈ 6.53 µM); in assay [2] (read-out: MIC), 32 µg/mL (≈ 104 µM); in assay [3] (read-out: MIC), 32 µg/mL (≈ 104 µM); in assay [4] (read-out: MIC), 16 µg/mL (≈ 52.2 µM).

Consider `C[C@H](CCC(=O)NCCN)[C@H]1CC[C@H]2[C@@H]3CC[C@@H]4C[C@H](O)CC[C@]4(C)[C@H]3C[C@H](O)[C@]12C` [Compound 1, (R)—N-(2-aminoethyl)-4-((3R,5R,8R,9S,10S,12S,13R,14S,17R)-3,12-dihydroxy-10,13-dimethylhexadecahydro-1H-cyclopenta[a]phenanthren-17-yl) pentanamida], for which the MIC in assay [1] worked out at 64 µg/mL (≈ 147 µM); in assay [2], 64 µg/mL (≈ 147 µM); in assay [3], 32 µg/mL (≈ 73.6 µM); in assay [4], 32 µg/mL (≈ 73.6 µM). The MLC in assay [1] is 64 µg/mL (≈ 147 µM); in assay [2] it was 128 µg/mL (≈ 294 µM); in assay [3], 32 µg/mL (≈ 73.6 µM); in assay [4] it was 64 µg/mL (≈ 147 µM).

As usually defined, the MIC is the least concentration at which growth counts as inhibited.
